Test results taken from PubChem BioAssay AID1963966 (Molecular Pharmacology Branch, DTP, NCI, 2024).

System: 935938-334-R-J1-PDC spheroids with HUVEC/MSC, viability
Experiment: Anticancer human tumor 935938-334-R-J1-PDC patient-derived small intestine adenocarcinoma cell line growth inhibition [PI3K]
Conditions: for IC50: curve of first compound; for viability, T/C: stronger effect = lower value
In short: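 Multi-cell spheroids combine tumor cells with HUVEC and human MSCs, treated with targeted agents alone or with inavolisib, alpelisib, duvelisib or copanlisib. Concentrations fall in half-log steps from at or near clinical Cmax, or from 10 microM where Cmax is unknown; viability read-out.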

[1] = second compound 0.00316 µM, first compound 0.000316 µM
[2] = second compound 0.00316 µM, first compound 0.001 µM
[3] = second compound 0.00316 µM, first compound 0.00316 µM
[4] = second compound 0.00316 µM, first compound 0.01 µM
[5] = second compound 0.00316 µM, first compound 0.0316 µM
[6] = second compound 0.00316 µM, first compound 0.1 µM
[7] = second compound 0.01 µM, first compound 0.000316 µM
[8] = second compound 0.01 µM, first compound 0.001 µM
[9] = second compound 0.01 µM, first compound 0.00316 µM
[10] = second compound 0.01 µM, first compound 0.01 µM
[11] = second compound 0.01 µM, first compound 0.0316 µM
[12] = second compound 0.01 µM, first compound 0.1 µM
[13] = second compound 0.0316 µM, first compound 0.000316 µM
[14] = second compound 0.0316 µM, first compound 0.001 µM
[15] = second compound 0.0316 µM, first compound 0.00316 µM
[16] = second compound 0.0316 µM, first compound 0.01 µM
[17] = second compound 0.0316 µM, first compound 0.0316 µM
[18] = second compound 0.0316 µM, first compound 0.1 µM
[19] = second compound 0.1 µM, first compound 0.000316 µM
[20] = second compound 0.1 µM, first compound 0.001 µM
[21] = second compound 0.1 µM, first compound 0.00316 µM
[22] = second compound 0.1 µM, first compound 0.01 µM
[23] = second compound 0.1 µM, first compound 0.0316 µM
[24] = second compound 0.1 µM, first compound 0.1 µM
[25] = second compound 0.316 µM, first compound 0.000316 µM
[26] = second compound 0.316 µM, first compound 0.001 µM
[27] = second compound 0.316 µM, first compound 0.00316 µM
[28] = second compound 0.316 µM, first compound 0.01 µM
[29] = second compound 0.316 µM, first compound 0.0316 µM
[30] = second compound 0.316 µM, first compound 0.1 µM
[31] = second compound 1 µM, first compound 0.000316 µM
[32] = second compound 1 µM, first compound 0.001 µM
[33] = second compound 1 µM, first compound 0.00316 µM
[34] = second compound 1 µM, first compound 0.01 µM
[35] = second compound 1 µM, first compound 0.0316 µM
[36] = second compound 1 µM, first compound 0.1 µM
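Also: compound exposure lasted seven days before viability was read.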
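For viability, T/C in this document: percent of vehicle DMSO treated spheroid viability so 100% = untreated.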

SMILES: CC(=O)c1c(C)c2cnc(Nc3ccc(N4CCNCC4)cn3)nc2n(C2CCCC2)c1=O + COc1c(OCCCN2CCOCC2)ccc2c3n(c(=NC(=O)c4cnc(N)nc4)nc12)CCN3
- IC50 (second compound 0.00316 µM): > 100 nM
- IC50 (second compound 0.01 µM): > 100 nM
- IC50 (second compound 0.0316 µM): > 100 nM
- IC50 (second compound 0.1 µM): 0.621 nM
- IC50 (second compound 0.316 µM): < 0.316 nM
- IC50 (second compound 1 µM): < 0.316 nM
- viability, T/C [1]: 94.8%
- viability, T/C [2]: 98.7%
- viability, T/C [3]: 80.2%
- viability, T/C [4]: 113%
- viability, T/C [5]: 110%
- viability, T/C [6]: 57.4%
- viability, T/C [7]: 99.7%
- viability, T/C [8]: 90.8%
- viability, T/C [9]: 80.4%
- viability, T/C [10]: 90.1%
- viability, T/C [11]: 78.4%
- viability, T/C [12]: 56.3%
- viability, T/C [13]: 81.8%
- viability, T/C [14]: 74.7%
- viability, T/C [15]: 68.3%
- viability, T/C [16]: 63.2%
- viability, T/C [17]: 63.8%
- viability, T/C [18]: 48.6%
- viability, T/C [19]: 54.4%
- viability, T/C [20]: 48.6%
- viability, T/C [21]: 37.9%
- viability, T/C [22]: 42%
- viability, T/C [23]: 39.7%
- viability, T/C [24]: 35.6%
- viability, T/C [25]: 39.9%
- viability, T/C [26]: 32.6%
- viability, T/C [27]: 29.2%
- viability, T/C [28]: 33.3%
- viability, T/C [29]: 27.9%
- viability, T/C [30]: 35.3%
- viability, T/C [31]: 38.4%
- viability, T/C [32]: 35.2%
- viability, T/C [33]: 35.3%
- viability, T/C [34]: 39.6%
- viability, T/C [35]: 30.2%
- viability, T/C [36]: 31%

SMILES: CC(C)n1nc(-c2ccc3oc(N)nc3c2)c2c(N)ncnc21 + COc1c(OCCCN2CCOCC2)ccc2c3n(c(=NC(=O)c4cnc(N)nc4)nc12)CCN3
- IC50 (second compound 0.00316 µM): > 100 nM
- IC50 (second compound 0.01 µM): 81.8 nM
- IC50 (second compound 0.0316 µM): 26.6 nM
- IC50 (second compound 0.1 µM): < 0.316 nM
- IC50 (second compound 0.316 µM): < 0.316 nM
- IC50 (second compound 1 µM): < 0.316 nM
- viability, T/C [1]: 86.9%
- viability, T/C [2]: 110%
- viability, T/C [3]: 106%
- viability, T/C [4]: 99.9%
- viability, T/C [5]: 85.3%
- viability, T/C [6]: 54.8%
- viability, T/C [7]: 94.5%
- viability, T/C [8]: 83.2%
- viability, T/C [9]: 92.6%
- viability, T/C [10]: 89.5%
- viability, T/C [11]: 79.6%
- viability, T/C [12]: 43.4%
- viability, T/C [13]: 83.9%
- viability, T/C [14]: 107%
- viability, T/C [15]: 92.7%
- viability, T/C [16]: 68%
- viability, T/C [17]: 50.2%
- viability, T/C [18]: 35.1%
- viability, T/C [19]: 45.1%
- viability, T/C [20]: 59.4%
- viability, T/C [21]: 39.2%
- viability, T/C [22]: 48.2%
- viability, T/C [23]: 36.9%
- viability, T/C [24]: 34.8%
- viability, T/C [25]: 36.3%
- viability, T/C [26]: 38.9%
- viability, T/C [27]: 34.5%
- viability, T/C [28]: 31.1%
- viability, T/C [29]: 42.5%
- viability, T/C [30]: 31.1%
- viability, T/C [31]: 42.6%
- viability, T/C [32]: 37.2%
- viability, T/C [33]: 37.1%
- viability, T/C [34]: 32.5%
- viability, T/C [35]: 26.5%
- viability, T/C [36]: 33.4%

SMILES: CCCS(=O)(=O)Nc1ccc(F)c(C(=O)c2c[nH]c3ncc(-c4ccc(Cl)cc4)cc23)c1F + COc1c(OCCCN2CCOCC2)ccc2c3n(c(=NC(=O)c4cnc(N)nc4)nc12)CCN3
- IC50 (second compound 0.00316 µM): 7390 nM
- IC50 (second compound 0.01 µM): 7410 nM
- IC50 (second compound 0.0316 µM): 6730 nM
- IC50 (second compound 0.1 µM): 5380 nM
- IC50 (second compound 0.316 µM): < 31.6 nM
- IC50 (second compound 1 µM): < 31.6 nM
- viability, T/C [5]: 97.3%
- viability, T/C [6]: 104%
- viability, T/C (second compound 0.00316 µM, first compound 0.316 µM): 113%
- viability, T/C (second compound 0.00316 µM, first compound 1 µM): 132%
- viability, T/C (second compound 0.00316 µM, first compound 3.16 µM): 102%
- viability, T/C (second compound 0.00316 µM, first compound 10 µM): 31.2%
- viability, T/C [11]: 123%
- viability, T/C [12]: 107%
- viability, T/C (second compound 0.01 µM, first compound 0.316 µM): 96.1%
- viability, T/C (second compound 0.01 µM, first compound 1 µM): 120%
- viability, T/C (second compound 0.01 µM, first compound 3.16 µM): 115%
- viability, T/C (second compound 0.01 µM, first compound 10 µM): 28.1%
- viability, T/C [17]: 95%
- viability, T/C [18]: 81.4%
- viability, T/C (second compound 0.0316 µM, first compound 0.316 µM): 85%
- viability, T/C (second compound 0.0316 µM, first compound 1 µM): 108%
- viability, T/C (second compound 0.0316 µM, first compound 3.16 µM): 87.9%
- viability, T/C (second compound 0.0316 µM, first compound 10 µM): 29.5%
- viability, T/C [23]: 61.8%
- viability, T/C [24]: 65.5%
- viability, T/C (second compound 0.1 µM, first compound 0.316 µM): 65.3%
- viability, T/C (second compound 0.1 µM, first compound 1 µM): 89.1%
- viability, T/C (second compound 0.1 µM, first compound 3.16 µM): 70.6%
- viability, T/C (second compound 0.1 µM, first compound 10 µM): 26.7%
- viability, T/C [29]: 39%
- viability, T/C [30]: 45.2%
- viability, T/C (second compound 0.316 µM, first compound 0.316 µM): 51.6%
- viability, T/C (second compound 0.316 µM, first compound 1 µM): 49.3%
- viability, T/C (second compound 0.316 µM, first compound 3.16 µM): 49.5%
- viability, T/C (second compound 0.316 µM, first compound 10 µM): 31.9%
- viability, T/C [35]: 39.2%
- viability, T/C [36]: 40.9%
- viability, T/C (second compound 1 µM, first compound 0.316 µM): 39.3%
- viability, T/C (second compound 1 µM, first compound 1 µM): 50%
- viability, T/C (second compound 1 µM, first compound 3.16 µM): 50.3%
- viability, T/C (second compound 1 µM, first compound 10 µM): 23.9%
